Measurements from patent publication US20260217701A1, “SELECTIVE BET INHIBITORS AND USES THEREOF” (Tay Therapeutics Limited, priority 2022, published 2026).
Values joined by “and” are separate entries in the source; they are usually repeats but may differ in a detail not shown here. Identical values can stand only once. Like-named read-outs stand apart in the source and are kept apart here.

Test: Dog PK study #1 (Compound A IV and PO, propylene glycol formulation)
Type: in vivo, beagle dogs
Conditions: for Vd: read-out: Vss—obs
Source text: The purpose of this study was to examine the pharmacokinetics of Compound A in beagle dogs. Four beagle dog studies were undertaken, one where Compound A was formulated in a propylene glycol based formulation (Dog PK study #1-PO and IV), a second where Compound A was formulated in a HPBCD based formulation (Dog PK study #2-IV), a third where Compound A was formulated in a 5% DMSO/15% PEG-400/80% (10% VE-TPGS) formulation (Dog PK study #3-PO), and a fourth where Compound A was formulated in […]/15% PEG-400/80% (10% VE-TPGS) formulation (Dog PK study #4-PO).
For Dog PK study #1, two solutions of different concentrations of Compound A were prepared in 20% propylene glycol/20% Vitamin E TPGS/60% water as outlined in Table 2A in Experimental Method A. The solutions of Compound A in 20% propylene glycol/20% Vitamin E TPGS/60% water were prepared freshly prior to use. The Compound A solutions administered were then administered to animals either intravenously (IV) or orally (PO) and animals were then monitored over a 24 h period (Table 3B). Body weight was recorded prior to dosing, and detailed clinical observations were made prior to dosing and throughout the study, as needed.
Blood samples (~0.3 mL) were collected according to a schedule (shown below) by venipuncture of peripheral veins except for the dosing vein, and EDTA-K2 was used as anticoagulant. Within 30 minutes of collection, the samples were centrifuged at approximately 2000 times g-force for 10 minutes at 4° C. to obtain blood plasma. The plasma samples were immediately divided into two aliquots (~75 μL each), transferred to a cryogenic vial, and stored in a freezer at −75±15° C. prior to analysis.
Blood samples for IV were collected at 0.083, 0.25, 0.5, 1, 2, 4, 8, 24 h and blood samples for PO were collected at 0.25, 0.5, 1, 2, 4, 8, and 24 h following the initial dosing (0 h).
The concentration of Compound A in the blood plasma was determined through liquid chromatography-mass spectrometry (LC-MS). The experiments were conducted on a Shimadzu HPLC(DGU-20A5R; LC-30AD; SIL-30AC; Rack Changer II; CTO-30A; and CBM-20A) and AB API 5500+LC/MS/MS instrument with an Agilent Poroshell EC-C18 4 μm (50×2.1 mm) column. A gradient of 95% water (0.1% formic acid)/95% acetonitrile (0.1% formic acid) was used as the mobile phase. The sample injection volume was 10 μL, and the flow rate was 0.6 mL/min. The gathered data were used for pharmacokinetic calculations using T1/2, C0, AUClast, AUCinf, MRTinf, Cl, Vss, and Number of Points for Regression as parameters.
The desired serial concentrations of working solutions were achieved by diluting stock solution of analyte with 50% acetonitrile in water solution. 5 μL of working solutions (5, 10, 20, 50, 100, 500, 1000, 5000, 10000 ng/mL) were added to 50 μL of the blank Beagle Dogs plasma to achieve calibration standards of 0.5~1000 ng/ml (0.5, 1, 2, 5, 10, 50, 100, 500, 1000 ng/ml) in a total volume of 55 μL. Five quality control samples at 1 ng/ml, 2 ng/ml, 5 ng/ml, 50 ng/mL and 800 ng/ml for plasma were prepared independently of those used for the calibration curves. These QC samples were prepared on the day of analysis in the same way as calibration standards.
55 μL standards, 55 μL QC samples and 55 μL unknown samples (50 μl plasma with 5 μL blank solution were added to 200 μL of acetonitrile containing IS mixture (verapamil) for precipitating protein respectively. Then the samples were vortexed for 30 s. After centrifugation at 4° C., 3900 rpm for 15 min, the supernatant was diluted 3 times with water. 10 μL of diluted supernatant was injected into the LC/MS/MS system for quantitative analysis.

[1] = IV 1 mg/kg, individual animals, 1 mg/kg
[2] = beagle, dog, plasma, iv, 1 mg/kg, IV 1 mg/kg, individual animals, read-out: Plasma concentration
[3] = beagle, dog, plasma, iv, 1 mg/kg, IV 1 mg/kg, mean, read-out: Average plasma concentration
[4] = beagle, dog, plasma, iv, 1 mg/kg, IV 1 mg/kg, mean
[5] = beagle, dog, plasma, iv, 1 mg/kg, IV 1 mg/kg, individual animals
[6] = beagle, dog, plasma, po, 5 mg/kg, oral 5 mg/kg, individual animals, read-out: Plasma concentration
[7] = beagle, dog, plasma, po, 5 mg/kg, oral 5 mg/kg, mean, read-out: Average plasma concentration
[8] = beagle, dog, plasma, po, 5 mg/kg, oral 5 mg/kg, mean
[9] = beagle, dog, plasma, po, 5 mg/kg, oral 5 mg/kg, individual animals
[10] = oral 5 mg/kg, individual animals, 5 mg/kg

In the case of `Cn1cc(-c2ccccc2)c(-c2cn(C)c(=O)c3[nH]c(-c4cnn(C(F)(F)F)c4)cc23)cc1=O` [Compound A, 6-methyl-4-(1-methyl-2-oxo-5-phenyl-1,2-dihydropyridin-4-yl)-2-(1-(trifluoromethyl)-1H-pyrazol-4-yl)-1,6-dihydro-7H-pyrrolo[2,3-c]pyridin-7-one], the AUClast [1] was 4746 ng·h/mL and 2876 ng·h/mL and 7862 ng·h/mL, the AUClast/D [1] was 4746 (ng · h/mL)/(mg/kg) and 2876 (ng · h/mL)/(mg/kg) and 7862 (ng · h/mL)/(mg/kg) and the AUClnf [1] was 4892 ng·h/mL and 2944 ng·h/mL and 8955 ng·h/mL. The “AUC—%Extrap—obs” value [1] was 2.98% and 2.32% and 12.2%, the C0 [1] was 1618 ng/mL and 1767 ng/mL and the CI_obs [1] was 3.41 mL/min/kg and 5.66 mL/min/kg and 1.86 mL/min/kg. The “MRTlnf—obs” value [1] was 5.21 h and 4.15 h and 10.0 h, the T1/2 [1] was 5.23 h and 8.60 h and the “Vss—obs” value [1] was 1.41 L/kg and 1.12 L/kg. The AUClast/D (IV 1 mg/kg, mean) was 5162 (ng · h/mL)/(mg/kg), the “AUC—%Extrap—obs” value (IV 1 mg/kg, mean) was 5.8% and the CI_obs (IV 1 mg/kg, mean) was 3.64 mL/min/kg. For the same compound, the “MRTlnf—obs” value (IV 1 mg/kg, mean) was 6.5 h, the “time over which plasma concentration increased after oral administration” value (PO, all animals) was 2 h and the concentration at 0.083 h [2] was 1480 ng/mL. It also gave a concentration at 0.083 h [3] of 1480 ng/mL, a concentration at 0.25 h [2] of 1130 ng/mL and a concentration at 0.25 h [3] of 1130 ng/mL. For the same compound, the concentration at 0.5 h [2] was 971 ng/mL, the concentration at 0.5 h [3] was 912 ng/mL and the concentration at 1 h [2] was 802 ng/mL. For the same compound, the concentration at 1 h [3] was 764 ng/mL, the concentration at 2 h [2] was 594 ng/mL and the concentration at 2 h [3] was 586 ng/mL. For the same compound, the concentration at 4 h [4] was 293 ng/mL, the concentration at 8 h [4] was 169 ng/mL and the concentration at 24 h [4] was 38.7 ng/mL. For the same compound, the half-life [5] was 316 min, the C0 (beagle, dog, plasma, iv, 1 mg/kg, IV 1 mg/kg, individual animals, read-out: C0) was 1690 ng/mL and the Vd [5] was 1.06 L/kg. For the same compound, the AUC [4] was 5600 ng·h/mL, the AUC(0-t) [4] was 5160 ng·h/mL and the half-life [4] was 382 min. It also gave a C0 (beagle, dog, plasma, iv, 1 mg/kg, IV 1 mg/kg, mean, read-out: C0) of 1690 ng/mL, a Vd [4] of 1.2 L/kg and a concentration at 0.25 h [6] of 25.1 ng/mL. It also gave a concentration at 0.25 h [7] of 26.7 ng/mL, a concentration at 0.5 h [6] of 147 ng/mL and a concentration at 0.5 h [7] of 127 ng/mL. The concentration at 1 h [7] was 293 ng/mL, the concentration at 2 h [7] was 435 ng/mL and the concentration at 4 h [8] was 369 ng/mL. For the same compound, the concentration at 8 h [8] was 123 ng/mL, the concentration at 24 h [8] was 29.9 ng/mL and the AUC [9] was 4520 ng·h/mL. For the same compound, the half-life [9] was 272 min, the AUC [8] was 4270 ng·h/mL and the AUC(0-t) [8] was 3500 ng·h/mL. It also gave a half-life [8] of 244 min, a Cmax (beagle, dog, plasma, po, 5 mg/kg, oral 5 mg/kg, mean, read-out: Cmax) of 435 ng/mL and a Tmax (beagle, dog, plasma, oral 5 mg/kg, individual animals) of 2 h. The AUClast [10] was 4398 ng·h/mL and 2122 ng·h/mL and 3976 ng·h/mL, the AUClast/D [10] was 880 (ng · h/mL)/(mg/kg) and 424 (ng · h/mL)/(mg/kg) and 795 (ng · h/mL)/(mg/kg) and the AUClnf [10] was 4019 ng·h/mL. The “AUC—%Extrap—obs” value [10] was 2.78% and 1.09%, the Cmax [10] was 498 ng/mL and 228 ng/mL and 580 ng/mL and the F [10] was 16.2% and 8.22% and 14.4%. For the same compound, the “MRTlnf—obs” value [10] was 6.47 h and 5.27 h, the T1/2 [10] was 3.61 h and the AUClast/D (oral 5 mg/kg, mean) was 700 (ng · h/mL)/(mg/kg). The “AUC—%Extrap—obs” value (oral 5 mg/kg, mean) was 1.93%, the F (oral 5 mg/kg, mean) was 12.9% and the “MRTlnf—obs” value (oral 5 mg/kg, mean) was 5.87 h. For the same compound, the availability and tolerability (overall statement on the four dog PK studies) was “IV and orally available and well tolerated”.
